US20120245031A1, “Pesticidal Mixtures” (BASF SE, priority 2009, published 2012)

Tests used:
Type in all cases: in vivo
[1] = tested on: wheat plants of the imidazolinone tolerant variety ‘BW755’; experiment: Transpiration (water loss) of cut wheat plants as indicator of drought tolerance, fluxapyroxad / imazethapyr (Example 3); settings: for Mean water loss / Observed efficacy: solo; for Mean water loss: 24 h; for Observed efficacy: decrease of water loss vs control
Method: (§1) The transpiration as an indicatior of drought tolerance of wheat plants treated or not treated with fluxapyroxad solo, imazethapyr solo, and mixtures thereof was assessed. 10 to 14 days old wheat plants were cut above the ground and placed into Eppendorf caps containing 2.2 ml of the test solution. The wheat plants were incubated for 24 h at 25° C. and 50% relative humidity in a growth chamber. The weight of the Eppendorf cap including the test solution but excluding the leaves was assessed before and after incubation. The difference in weight was recorded as the loss of water through transpiration. This assay is generally used to asses the drought tolerance of plants.
(§2) In the present example wheat plants of the imidazolinone tolerant variety ‘BW755’ were grown at 18° C. for 10 days in the greenhouse prior to the treatment and the incubation. 10 plants per treatment were treated and incubated as described. Fluxapyroxad and imazethapyr were dissolved in 0.5% DMSO. The 0.5% DMSO solution consisted of 0.5% DMSO dissolved in water. The tested concentrations are as described in table 4. Control plants were treated with the blank 0.5% DMSO solution only.
The efficacy of the tested compounds and mixtures was calculated as % of water loss compared to the control: […]
(§3) a corresponds to water loss of plants after incubation in the treated plants in g and b corresponds to water loss of plants after incubation in the control in g.

[2] = tested on: potted imidazolinone tolerant wheat, variety ‘BW755’; experiment: Greenhouse pot trial, total shoot biomass (dry weight) of wheat, fluxapyroxad / imazethapyr (Example 4); settings: solo; for Shoot dry weight: 7 days after the last treatment; for Observed efficacy: increase of biomass vs untreated control
Method: (§4) Wheat was grown in 2010 in the greenhouse at the agricultural center at Limburgerhof, Germany. The imidazolinone tolerant variety ‘BW755’ was planted in pots. The trial was setup with 8 replications with one pot 10 plants each per replication.
(§5) The active ingredients were used as formulations. The formulations were used in the product rates given below and in table 6. The products were applied in a total spray volume of 375 l/ha. Products were diluted in water. The spray solution was applied in a spray cabinet using a spray boom with flat fan nozzles.
Imazethapyr was applied once as PIVOT 100 SL™ (100 g active per liter soluble concentrate) when the wheat plants had the first leaf fully developed (BBCH 11). Fluxapyroxd was applied once as an experimental emulsion concentrate (62.5 g active ingredient per liter) when 2 to 3 leaves were fully developed (BBCH 12/13). The application of the mixture was applied as a sequence of PIVOT 100 SL™ at the stage when the first leave had developed and while the fluxapyroxad formulation was applied when 2-3 leaves had developed.
(§6) Total shoot biomass was assessed (table 6) by harvesting all plants of a pot 7 days after the last treatment (expressed as g per pot). Dry weight of total shoot biomass per pot was evaluated. After measuring fresh weight, the samples were dried in a drying cabinet at 65° C. for two days. The efficacy was calculated as % increase of biomass in the treatments compared to the untreated control:
(§7) a corresponds to the biomass of the treated plants in g/pot and b corresponds to the biomass of the untreated (control) plants in g/pot

[3] = tested on: potted imidazolinone tolerant wheat, variety ‘BW755’; experiment: Greenhouse pot trial, total shoot biomass (dry weight) of wheat, fluxapyroxad / imazamox (Example 2); settings: solo; for Shoot dry weight: 7 days following the last treatment; for Observed efficacy: increase of biomass vs untreated control
Method: as §4
as §5, with “3.” for “6.”
Imazamox was applied once as Raptor™ (120 g active per liter soluble concentrate) when the wheat plants had the first leaf fully developed (BBCH 11). Fluxapyroxd was applied once as an experimental emulsion concentrate (62.5 g active ingredient per liter) at 2 to 3 leaves fully developed (BBCH 12/13). The application of the mixture was carried out as a sequence, wherein Raptor™ was applied when the first leave had developed while the fluxapyroxad formulation was applied when 2-3 leaves had developed.
as §6, with “3)” for “6)”, “following” for “after”, “Afterwards, dry” for “Dry”
as §7

[4] = tested on: wheat plants of the imidazolinone tolerant variety ‘BW755’; experiment: Transpiration (water loss) of cut wheat plants as indicator for drought tolerance, fluxapyroxad / imazamox (Example 1); settings: solo; for Mean water loss: 24 h at 25° C.; for Observed efficacy: decrease of water loss vs control, 24 h
Method: as §1, with “transpiration” for “transpiration as an indicatior of drought tolerance”, “solo, imazamox” for “solo, imazethapyr”, “was assessed as an indicator for drought tolerance.” for “was assessed.”, “the plant” for “the leaves”, “weight is” for “weight was”, “assay can be” for “assay is generally”
as §2, with “imazamox” for “imazethapyr”, “are” for “are as”, “2.” for “4.”
The efficacy of the tested compounds and respective mixtures was calculated as % of water loss compared to the control: […]
as §3

[5] = 10 ppm, first experiment (table 4)
[6] = 10 ppm, repeated experiment (table 5)
[7] = 50 ppm, first experiment (table 4)
[8] = 100 ppm, first experiment (table 4)
[9] = 100 ppm, repeated experiment (table 5)
[10] = 1 ppm, first experiment (table 4)
[11] = 500 ppm, first experiment (table 4)

## Cn1cc(C(=O)Nc2ccccc2-c2cc(F)c(F)c(F)c2)c(C(F)F)n1 [Fluxapyroxad, N-(3′,4′,5′-trifluorobiphenyl-2-yl)-3-difluoromethyl-1-methyl-1H-pyrazole-4-carboxamide]
[1]; [5]
  Mean water loss: 0.853 g
  Observed efficacy: 14.59%
[1]; [6]
  Mean water loss: 1.266 g
  Observed efficacy: 10.46%
[1]; [7]
  Mean water loss: 0.728 g
  Observed efficacy: 27.16%
[1]; [8]
  Mean water loss: 0.647 g
  Observed efficacy: 35.22%
[1]; [9]
  Mean water loss: 0.628 g
  Observed efficacy: 55.60%
[2]; 10 g/ha
  Shoot dry weight: 0.638 g/pot
  Observed efficacy: −4.75%
[2]; 50 g/ha
  Shoot dry weight: 0.617 g/pot
  Observed efficacy: −7.88%
[2]; 100 g/ha
  Shoot dry weight: 0.649 g/pot
  Observed efficacy: −3.16%
[3]; 10.00 g/ha
  Shoot dry weight: 0.619 g/pot
  Observed efficacy: 3.80%
[3]; 50.00 g/ha
  Shoot dry weight: 0.604 g/pot
  Observed efficacy: 1.41%
[3]; 100.00 g/ha
  Shoot dry weight: 0.604 g/pot
  Observed efficacy: 1.30%
[4]; 50 ppm
  Mean water loss: 0.794 g
  Observed efficacy: 17.68%
[4]; 50 ppm, listed as fluxapyroxad
  Observed efficacy: about 18%

## COCc1cnc(C2=NC(C)(C(C)C)C(=O)N2)c(C(=O)O)c1 (stereo not shown) [Imazamox, imazamox]
[3]; 8.75 g/ha
  Shoot dry weight: 0.631 g/pot
  Observed efficacy: 5.83%
[3]; 8.75 g/ha, listed as imazamox
  Observed efficacy: about 6%
[3]; 17.50 g/ha
  Shoot dry weight: 0.559 g/pot
  Observed efficacy: −6.29%
[3]; 35 g imazamox per ha
  reduction of dry biomass: about 14%
[3]; 35.00 g/ha
  Shoot dry weight: 0.513 g/pot
  Observed efficacy: −13.93%
[4]; 50 ppm
  Mean water loss: 0.907 g
  Observed efficacy: 5.92%
[4]; 100 ppm
  Mean water loss: 0.855 g
  Observed efficacy: 11.32%
[4]; 150 ppm
  Mean water loss: 1.001 g
  Observed efficacy: −3.88%

## CCc1cnc(C2=NC(C)(C(C)C)C(=O)N2)c(C(=O)O)c1 (stereo not shown) [Imazethapyr, imazethapyr]
[1]; [10]
  Mean water loss: 1.249 g
  Observed efficacy: −25.04%
[1]; [6]
  Mean water loss: 1.435 g
  Observed efficacy: −1.52%
[1]; [11]
  Mean water loss: 0.878 g
  Observed efficacy: 12.12%
[1]; alone at 10 ppm, second experiment, table 5
  effect on water loss, in words: tended to be neutral
[2]; 17.5 g imazethapyr per ha
  reduction of dry biomass: about 1%
[2]; 17.5 g/ha
  Shoot dry weight: 0.665 g/pot
  Observed efficacy: −0.72%
[2]; 35 g imazethapyr per ha
  reduction of dry biomass: about 9%
[2]; 35 g/ha
  Shoot dry weight: 0.609 g/pot
  Observed efficacy: −9.07%
